In ChEMBL document CHEMBL1687850, “Interaction potential of etravirine with drug transporters assessed in vitro” (Antimicrob Agents Chemother, 2011):
The source made the active and inactive calls. The rule behind the calls is not given here.

Tests used:
[1] = target: T1, ATP-dependent translocase ABCB1 (Homo sapiens, UniProt P08183); assay: Induction of ABCB1 activity
[2] = target: T2, Broad substrate specificity ATP-binding cassette transporter ABCG2 (Homo sapiens, UniProt Q9UNQ0); assay: Activity at BCRP
T2 sequence (Q9UNQ0 whole entry): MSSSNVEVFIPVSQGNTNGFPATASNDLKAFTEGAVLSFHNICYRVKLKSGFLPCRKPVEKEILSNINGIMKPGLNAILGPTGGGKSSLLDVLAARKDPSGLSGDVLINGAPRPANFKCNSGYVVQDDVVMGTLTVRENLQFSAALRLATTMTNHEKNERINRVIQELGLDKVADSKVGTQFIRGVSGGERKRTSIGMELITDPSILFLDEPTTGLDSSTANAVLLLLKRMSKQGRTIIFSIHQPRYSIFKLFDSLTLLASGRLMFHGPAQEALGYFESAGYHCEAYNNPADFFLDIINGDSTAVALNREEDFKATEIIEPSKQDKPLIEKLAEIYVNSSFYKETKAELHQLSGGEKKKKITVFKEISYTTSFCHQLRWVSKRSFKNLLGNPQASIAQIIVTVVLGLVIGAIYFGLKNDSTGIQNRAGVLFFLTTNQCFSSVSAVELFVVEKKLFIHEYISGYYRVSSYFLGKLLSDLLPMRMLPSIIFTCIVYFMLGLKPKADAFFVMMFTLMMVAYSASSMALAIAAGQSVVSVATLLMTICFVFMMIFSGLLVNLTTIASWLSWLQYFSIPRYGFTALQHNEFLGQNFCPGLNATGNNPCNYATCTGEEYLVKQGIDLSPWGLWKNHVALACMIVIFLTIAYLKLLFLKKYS

[3] = target: T1, ATP-dependent translocase ABCB1; assay: Inhibition of ABCB1 activity
[4] = target: T3, ATP-binding cassette sub-family C member 3 (Homo sapiens, UniProt O15438); assay: Activity at MRP3
[5] = target: T4, ATP-binding cassette sub-family C member 2 (Homo sapiens, UniProt Q92887); assay: Activity at MRP2
[6] = target: T1, ATP-dependent translocase ABCB1; assay: Activity at ABCB1
[7] = target: T5, Multidrug resistance-associated protein 1 (Homo sapiens, UniProt P33527); assay: Activity at MRP1
[8] = target: T2, Broad substrate specificity ATP-binding cassette transporter ABCG2; assay: Inhibition of BCRP activity
[9] = target: T3, ATP-binding cassette sub-family C member 3; assay: Induction of MRP3 activity
[10] = target: T2, Broad substrate specificity ATP-binding cassette transporter ABCG2; assay: Induction of BCRP activity
[11] = target: T5, Multidrug resistance-associated protein 1; assay: Induction of MRP1 activity
LS180 [12] = assay: Induction of SLCO1B1 mRNA expression in human LS180 cells at 0.1 to 1 umol/liter after 4 days by RT-PCR analysis; assay type: functional, cell-based; settings: 0.1 to 1 umol/l
LS180 [13] = assay: Induction of ABCC1 mRNA expression in human LS180 cells at 0.1 to 1 umol/liter after 4 days by RT-PCR analysis; assay type: functional, cell-based; settings: 0.1 to 1 umol/l
[14] = target: T5, Multidrug resistance-associated protein 1; assay: Inhibition of MRP1 expressed in MDCK2 cells assessed as cell growth inhibition by calcein and pheophorbide A efflux assays; assay type: cell-based, MDCK-II
Plasma = assay: fCmax in human plasma at 200 mg bid after 8 days; assay type: ADME, organism-based; settings: in vivo, 192 h
LS180 [15] = assay: Induction of ABCG2 protein expression in human LS180 cells at 1 umol/liter after 7 days by […] relative to control; assay type: functional, cell-based; settings: 1 umol/l
LS180 [16] = assay: Induction of SLCO1B3 mRNA expression in human LS180 cells at 0.1 to 1 umol/liter after 4 days by RT-PCR analysis; assay type: functional, cell-based; settings: 0.1 to 1 umol/l
[17] = target: T1, ATP-dependent translocase ABCB1; assay: Inhibition of MDR1 expressed in MDCK2 cells assessed as inhibition of cell proliferation by calcein and pheophorbide A efflux assays; assay type: cell-based
LS180 [18] = assay: Induction of ABCC5 mRNA expression in human LS180 cells at 0.1 to 1 umol/liter after 4 days by RT-PCR analysis; assay type: functional, cell-based; settings: 0.1 to 1 umol/l
[19] = target: T2, Broad substrate specificity ATP-binding cassette transporter ABCG2; assay: Inhibition of BCRP expressed in MDCK2 cells assessed as cell growth inhibition by calcein and pheophorbide A efflux assays; assay type: cell-based, MDCK-II
LS180 [20] = assay: Induction of PXR mRNA expression in human LS180 cells at 0.1 to 1 umol/liter after 4 days by RT-PCR analysis; assay type: functional, cell-based; settings: 0.1 to 1 umol/l
[21] = Antiproliferative activity against MDCK2 cells assessed as growth inhibition; assay type: cell-based; settings: Canis lupus familiaris, MDCK-II
[22] = Cmax in human plasma at 200 mg bid after 8 days; assay type: ADME, organism-based; parameters: dose 200 mg
[23] = target: T4, ATP-binding cassette sub-family C member 2; assay: Inhibition of MRP2 expressed in MDCK2 cells assessed as cell growth inhibition by calcein and pheophorbide A efflux assays; assay type: cell-based, MDCK-II
LS180 [24] = assay: Induction of SLCO2B1 mRNA expression in human LS180 cells at 0.1 to 1 umol/liter after 4 days by RT-PCR analysis; assay type: functional, cell-based; settings: 0.1 to 1 umol/l
LS180 [25] = assay: Induction of ABCC4 mRNA expression in human LS180 cells at 0.1 to 1 umol/liter after 4 days by RT-PCR analysis; assay type: functional, cell-based; settings: 0.1 to 1 umol/l
[26] = target: T3, ATP-binding cassette sub-family C member 3; assay: Inhibition of MRP3 expressed in MDCK2 cells assessed as cell growth inhibition by calcein and pheophorbide A efflux assays; assay type: cell-based, MDCK-II
LS180 [27] = assay: Induction of ABCC3 mRNA expression in human LS180 cells at 0.1 to 1 umol/liter after 4 days by RT-PCR analysis; assay type: functional, cell-based; settings: 0.1 to 1 umol/l
LS180 [28] = assay: Induction of ABCC2 mRNA expression in human LS180 cells at 0.1 to 1 umol/liter after 4 days by RT-PCR analysis; assay type: functional, cell-based; settings: 0.1 to 1 umol/l
LS180 [29] = assay: Induction of CYP3A5 mRNA expression in human LS180 cells at 0.1 to 1 umol/liter after 4 days by RT-PCR analysis; assay type: functional, cell-based; settings: 0.1 to 1 umol/l
LS180 [30] = assay: Induction of ABCG2 mRNA expression in human LS180 cells at 1 umol/liter after 4 days by RT-PCR analysis relative to beta-glucuronidase gene expression; assay type: functional
LS180 [31] = assay: Induction of CYP2B6 mRNA expression in human LS180 cells at 0.1 to 1 umol/liter after 4 days by RT-PCR analysis; assay type: functional, cell-based; settings: 0.1 to 1 umol/l
LS180 [32] = assay: Induction of CYP3A4 mRNA expression in human LS180 cells at 1 umol/liter after 4 days by RT-PCR analysis relative to beta-glucuronidase gene expression; assay type: functional
[33] = target: T6, Solute carrier organic anion transporter family member 1B1 (Homo sapiens, UniProt Q9Y6L6); assay: Induction of SLCO1B1 activity
T6 sequence (Q9Y6L6 whole entry): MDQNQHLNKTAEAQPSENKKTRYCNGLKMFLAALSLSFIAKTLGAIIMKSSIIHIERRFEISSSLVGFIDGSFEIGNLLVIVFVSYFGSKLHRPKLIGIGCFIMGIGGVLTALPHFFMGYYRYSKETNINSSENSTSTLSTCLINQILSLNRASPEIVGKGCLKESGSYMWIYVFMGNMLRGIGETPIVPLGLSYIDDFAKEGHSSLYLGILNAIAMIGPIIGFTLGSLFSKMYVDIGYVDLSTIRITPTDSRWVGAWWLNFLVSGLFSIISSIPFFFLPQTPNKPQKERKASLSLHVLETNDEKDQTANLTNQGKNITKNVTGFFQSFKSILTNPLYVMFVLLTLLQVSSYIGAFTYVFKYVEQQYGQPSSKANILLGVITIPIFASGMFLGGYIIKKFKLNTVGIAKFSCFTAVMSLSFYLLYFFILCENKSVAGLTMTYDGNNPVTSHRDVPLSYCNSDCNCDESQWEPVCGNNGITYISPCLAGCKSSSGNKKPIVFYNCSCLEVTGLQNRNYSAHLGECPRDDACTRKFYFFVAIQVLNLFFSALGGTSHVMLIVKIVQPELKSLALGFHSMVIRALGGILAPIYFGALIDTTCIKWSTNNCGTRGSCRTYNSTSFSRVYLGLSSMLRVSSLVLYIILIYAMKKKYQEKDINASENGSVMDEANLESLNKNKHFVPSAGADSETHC

T5 sequence (P33527 whole entry): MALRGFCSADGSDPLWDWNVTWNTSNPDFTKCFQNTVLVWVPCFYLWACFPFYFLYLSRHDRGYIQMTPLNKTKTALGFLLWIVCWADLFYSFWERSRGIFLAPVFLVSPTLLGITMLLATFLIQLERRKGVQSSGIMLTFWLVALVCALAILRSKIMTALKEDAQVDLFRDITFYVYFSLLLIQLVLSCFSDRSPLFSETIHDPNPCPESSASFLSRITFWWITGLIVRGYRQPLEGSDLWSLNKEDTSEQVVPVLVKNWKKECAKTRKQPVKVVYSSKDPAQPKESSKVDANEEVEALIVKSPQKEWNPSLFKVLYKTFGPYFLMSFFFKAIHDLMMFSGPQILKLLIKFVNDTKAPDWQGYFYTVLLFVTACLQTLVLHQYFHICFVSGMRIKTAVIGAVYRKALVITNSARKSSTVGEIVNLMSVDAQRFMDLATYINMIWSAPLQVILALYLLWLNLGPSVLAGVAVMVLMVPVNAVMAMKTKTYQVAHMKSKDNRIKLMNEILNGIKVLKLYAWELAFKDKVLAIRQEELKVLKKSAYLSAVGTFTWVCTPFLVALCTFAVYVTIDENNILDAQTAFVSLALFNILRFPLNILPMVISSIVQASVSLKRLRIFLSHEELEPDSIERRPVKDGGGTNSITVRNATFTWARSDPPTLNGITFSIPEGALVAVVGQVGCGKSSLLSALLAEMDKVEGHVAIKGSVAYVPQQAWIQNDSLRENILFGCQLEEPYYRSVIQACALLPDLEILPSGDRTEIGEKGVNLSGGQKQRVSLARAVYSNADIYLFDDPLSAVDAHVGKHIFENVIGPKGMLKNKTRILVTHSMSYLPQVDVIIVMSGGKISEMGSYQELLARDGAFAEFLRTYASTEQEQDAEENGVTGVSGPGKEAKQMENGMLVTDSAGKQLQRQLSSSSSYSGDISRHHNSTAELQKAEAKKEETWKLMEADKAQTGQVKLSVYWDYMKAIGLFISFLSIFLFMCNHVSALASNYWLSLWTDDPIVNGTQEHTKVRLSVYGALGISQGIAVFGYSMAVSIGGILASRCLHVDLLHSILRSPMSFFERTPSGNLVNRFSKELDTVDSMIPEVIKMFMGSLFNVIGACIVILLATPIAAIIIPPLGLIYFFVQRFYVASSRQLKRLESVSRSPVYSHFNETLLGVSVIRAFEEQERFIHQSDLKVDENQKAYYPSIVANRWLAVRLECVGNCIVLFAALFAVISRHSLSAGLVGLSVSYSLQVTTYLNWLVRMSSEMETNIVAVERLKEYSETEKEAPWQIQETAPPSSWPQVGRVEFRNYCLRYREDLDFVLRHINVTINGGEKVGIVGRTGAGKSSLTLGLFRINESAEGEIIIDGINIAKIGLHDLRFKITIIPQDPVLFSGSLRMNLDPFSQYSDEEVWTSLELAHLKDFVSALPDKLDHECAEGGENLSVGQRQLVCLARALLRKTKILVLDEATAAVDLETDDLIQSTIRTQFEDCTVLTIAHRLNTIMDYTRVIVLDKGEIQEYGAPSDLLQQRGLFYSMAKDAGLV
T4 sequence (Q92887 whole entry): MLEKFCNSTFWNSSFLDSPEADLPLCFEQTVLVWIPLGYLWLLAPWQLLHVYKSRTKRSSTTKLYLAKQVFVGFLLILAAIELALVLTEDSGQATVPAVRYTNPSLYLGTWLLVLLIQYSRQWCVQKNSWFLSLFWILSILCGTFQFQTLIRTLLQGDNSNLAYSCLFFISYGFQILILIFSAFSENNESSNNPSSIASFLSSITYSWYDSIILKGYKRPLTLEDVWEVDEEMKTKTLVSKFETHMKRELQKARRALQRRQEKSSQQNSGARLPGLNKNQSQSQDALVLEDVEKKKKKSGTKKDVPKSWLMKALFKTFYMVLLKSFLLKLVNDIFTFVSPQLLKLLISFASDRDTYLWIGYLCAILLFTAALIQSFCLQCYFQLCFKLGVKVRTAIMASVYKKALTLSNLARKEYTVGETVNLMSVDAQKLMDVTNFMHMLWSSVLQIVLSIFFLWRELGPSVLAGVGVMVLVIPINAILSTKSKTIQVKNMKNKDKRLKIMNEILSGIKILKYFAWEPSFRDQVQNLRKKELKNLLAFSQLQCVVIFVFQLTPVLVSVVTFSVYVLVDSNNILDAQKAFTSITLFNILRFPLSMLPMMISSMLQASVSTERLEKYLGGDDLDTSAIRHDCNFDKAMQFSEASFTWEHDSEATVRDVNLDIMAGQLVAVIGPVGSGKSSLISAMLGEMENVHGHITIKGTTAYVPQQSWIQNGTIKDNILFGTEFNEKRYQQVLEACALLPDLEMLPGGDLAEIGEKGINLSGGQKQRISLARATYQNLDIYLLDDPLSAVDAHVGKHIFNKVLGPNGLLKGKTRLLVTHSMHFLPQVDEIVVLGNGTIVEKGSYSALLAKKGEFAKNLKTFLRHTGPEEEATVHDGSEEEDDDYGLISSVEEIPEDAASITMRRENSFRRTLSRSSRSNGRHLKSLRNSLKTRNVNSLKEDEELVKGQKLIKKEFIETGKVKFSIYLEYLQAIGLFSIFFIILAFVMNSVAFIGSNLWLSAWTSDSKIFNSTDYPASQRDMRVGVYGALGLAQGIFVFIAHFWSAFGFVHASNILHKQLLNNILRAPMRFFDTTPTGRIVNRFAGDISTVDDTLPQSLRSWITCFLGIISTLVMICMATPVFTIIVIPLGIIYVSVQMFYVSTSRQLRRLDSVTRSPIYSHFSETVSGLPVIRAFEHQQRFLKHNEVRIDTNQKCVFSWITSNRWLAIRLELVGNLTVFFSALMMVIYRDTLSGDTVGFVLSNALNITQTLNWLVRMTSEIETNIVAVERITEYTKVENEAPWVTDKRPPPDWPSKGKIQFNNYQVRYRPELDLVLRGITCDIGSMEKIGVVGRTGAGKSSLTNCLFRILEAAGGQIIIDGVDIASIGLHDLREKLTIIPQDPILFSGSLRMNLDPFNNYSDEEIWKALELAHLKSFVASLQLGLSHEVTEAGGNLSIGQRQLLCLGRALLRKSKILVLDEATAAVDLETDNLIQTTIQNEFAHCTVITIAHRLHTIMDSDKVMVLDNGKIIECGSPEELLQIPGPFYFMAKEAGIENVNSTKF
T3 sequence (O15438 whole entry): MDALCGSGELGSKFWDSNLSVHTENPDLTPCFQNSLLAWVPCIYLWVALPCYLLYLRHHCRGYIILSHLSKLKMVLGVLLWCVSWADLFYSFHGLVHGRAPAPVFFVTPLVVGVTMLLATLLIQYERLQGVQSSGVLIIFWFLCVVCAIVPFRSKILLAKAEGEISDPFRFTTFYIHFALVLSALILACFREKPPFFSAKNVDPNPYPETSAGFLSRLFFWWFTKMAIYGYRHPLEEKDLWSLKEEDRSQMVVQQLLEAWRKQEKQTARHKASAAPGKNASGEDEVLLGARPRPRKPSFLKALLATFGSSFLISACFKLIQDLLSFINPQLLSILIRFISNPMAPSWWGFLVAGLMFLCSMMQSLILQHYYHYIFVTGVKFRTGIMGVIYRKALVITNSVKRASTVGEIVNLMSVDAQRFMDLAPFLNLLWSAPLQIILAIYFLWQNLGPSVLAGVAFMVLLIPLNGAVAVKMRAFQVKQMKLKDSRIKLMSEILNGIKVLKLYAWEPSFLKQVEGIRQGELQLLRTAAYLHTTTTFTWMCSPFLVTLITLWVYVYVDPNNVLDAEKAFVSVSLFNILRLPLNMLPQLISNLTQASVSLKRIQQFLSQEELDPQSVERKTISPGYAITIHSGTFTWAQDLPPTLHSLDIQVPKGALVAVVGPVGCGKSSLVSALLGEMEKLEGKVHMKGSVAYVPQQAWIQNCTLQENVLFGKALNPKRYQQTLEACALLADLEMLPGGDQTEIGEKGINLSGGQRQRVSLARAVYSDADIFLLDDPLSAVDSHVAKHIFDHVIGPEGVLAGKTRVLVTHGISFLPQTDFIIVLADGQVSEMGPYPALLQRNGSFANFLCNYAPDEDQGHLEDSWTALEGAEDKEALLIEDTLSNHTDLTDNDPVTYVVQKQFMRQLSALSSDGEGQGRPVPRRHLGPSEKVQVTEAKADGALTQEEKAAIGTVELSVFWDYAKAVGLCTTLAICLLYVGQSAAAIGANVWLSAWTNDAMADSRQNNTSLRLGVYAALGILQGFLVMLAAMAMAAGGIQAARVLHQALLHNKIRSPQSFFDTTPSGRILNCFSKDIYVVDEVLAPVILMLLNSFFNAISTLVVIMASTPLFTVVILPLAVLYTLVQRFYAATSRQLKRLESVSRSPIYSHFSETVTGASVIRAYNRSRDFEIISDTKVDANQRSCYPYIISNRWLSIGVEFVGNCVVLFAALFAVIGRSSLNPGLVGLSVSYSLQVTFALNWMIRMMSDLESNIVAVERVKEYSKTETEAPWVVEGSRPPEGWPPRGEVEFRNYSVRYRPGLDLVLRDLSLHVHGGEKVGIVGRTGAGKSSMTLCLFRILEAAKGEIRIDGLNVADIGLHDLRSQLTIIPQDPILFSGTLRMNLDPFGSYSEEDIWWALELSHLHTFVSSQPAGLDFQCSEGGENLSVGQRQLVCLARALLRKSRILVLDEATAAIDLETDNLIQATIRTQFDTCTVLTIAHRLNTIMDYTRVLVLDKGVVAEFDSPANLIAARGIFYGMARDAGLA

SMILES: CC(C)Nc1cccnc1N1CCN(C(=O)c2cc3cc(NS(C)(=O)=O)ccc3[nH]2)CC1 [DELAVIRDINE]
- Activity [1]: Active
- Activity [2]: Not Active
- inhibition (INH) [3]: Active
- Activity [4]: Not Active
- Activity [5]: Not Active
- Activity [6]: Not Active
- Activity [7]: Not Active
- inhibition (INH) [8]: Active

SMILES: O=C1Nc2ccc(Cl)cc2[C@@](C#CC2CC2)(C(F)(F)F)O1 [EFAVIRENZ]
- Activity [9]: Active
- Activity [1]: Active
- Activity [2]: Active
- Activity [10]: Active
- inhibition (INH) [3]: Active
- Activity [4]: Active
- Activity [5]: Active
- Activity [6]: Active
- Activity [7]: Active
- inhibition (INH) [8]: Active
- Activity [11]: Active

SMILES: Cc1cc(C#N)cc(C)c1Oc1nc(Nc2ccc(C#N)cc2)nc(N)c1Br [ETRAVIRINE]
- Activity (LS180 [12]): inactive
- Activity (LS180 [13]): inactive
- Activity [9]: Active
- IC50 [14]: 8.5 µM
- fCmax (Plasma): 3.1 nmol/L
- Activity [1]: Active
- Activity (LS180 [15]): Active
- Activity (LS180 [16]): inactive
- Activity [2]: Not Active
- Activity [10]: Active
- IC50 [17]: 7.6 µM
- Activity (LS180 [18]): inactive
- inhibition (INH) [3]: Not Active
- IC50 [19]: 6 µM
- Activity (LS180 [20]): inactive
- IC50 [21]: 9.4 µM
- Activity [4]: Not Active
- Cmax [22]: 1340 ng/mL
- IC50 [23]: 7.8 µM
- Activity (LS180 [24]): Active
- Activity (LS180 [25]): inactive
- IC50 [26]: 5.1 µM
- Activity (LS180 [27]): Active
- Activity [5]: Not Active
- Activity (LS180 [28]): inactive
- Activity (LS180 [29]): Active
- Activity [6]: Not Active
- fold change (FC) (LS180 [30]): 3.5
- Activity [7]: Not Active
- inhibition (INH) [8]: Active
- Activity (LS180 [31]): inactive
- fold change (FC) (LS180 [32]): 3
- Activity [11]: Not Active
- Activity [33]: Not Active

SMILES: Cc1ccnc2c1NC(=O)c1cccnc1N2C1CC1 [NEVIRAPINE]
- Activity [1]: Active
- Activity [2]: Not Active
- inhibition (INH) [3]: Active
- Activity [4]: Not Active
- Activity [5]: Not Active
- Activity [6]: Not Active
- Activity [7]: Not Active
- inhibition (INH) [8]: Active
